Results taken from PubChem BioAssay AID1963433 (Molecular Pharmacology Branch, DTP, NCI, 2024).

System: 772245-204-R-J1-PDC complex spheroid growth
Assay: Anticancer human tumor 772245-204-R-J1-PDC patient-derived rhabdomyosarcoma cell line growth inhibition [Asc]
Conditions: for IC50: curve of first compound; for viability, T/C: stronger effect = lower value; active = viability on the fitted dose curve at most 10% of control; inactive = the rest
In short: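 Stromal components (HUVEC and hMSC) are co-assembled with the cancer cells into multicellular spheroids. Drugs are then added singly or paired, at concentrations falling by half-log increments from a clinically achievable maximum, capped at 10 microM without known Cmax.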

[1] = second compound 0.01 µM, first compound 0.0316 µM
[2] = second compound 0.01 µM, first compound 0.1 µM
[3] = second compound 0.01 µM, first compound 0.316 µM
[4] = second compound 0.01 µM, first compound 1 µM
[5] = second compound 0.0316 µM, first compound 0.0316 µM
[6] = second compound 0.0316 µM, first compound 0.1 µM
[7] = second compound 0.0316 µM, first compound 0.316 µM
[8] = second compound 0.0316 µM, first compound 1 µM
[9] = second compound 0.1 µM, first compound 0.0316 µM
[10] = second compound 0.1 µM, first compound 0.1 µM
[11] = second compound 0.1 µM, first compound 0.316 µM
[12] = second compound 0.1 µM, first compound 1 µM
[13] = second compound 0.316 µM, first compound 0.0316 µM
[14] = second compound 0.316 µM, first compound 0.1 µM
[15] = second compound 0.316 µM, first compound 0.316 µM
[16] = second compound 0.316 µM, first compound 1 µM
[17] = second compound 1 µM, first compound 0.0316 µM
[18] = second compound 1 µM, first compound 0.1 µM
[19] = second compound 1 µM, first compound 0.316 µM
[20] = second compound 1 µM, first compound 1 µM
[21] = second compound 0.01 µM, first compound 0.00316 µM
[22] = second compound 0.01 µM, first compound 0.01 µM
[23] = second compound 0.0316 µM, first compound 0.00316 µM
[24] = second compound 0.0316 µM, first compound 0.01 µM
[25] = second compound 0.1 µM, first compound 0.00316 µM
[26] = second compound 0.1 µM, first compound 0.01 µM
[27] = second compound 0.316 µM, first compound 0.00316 µM
[28] = second compound 0.316 µM, first compound 0.01 µM
[29] = second compound 1 µM, first compound 0.00316 µM
[30] = second compound 1 µM, first compound 0.01 µM
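Note: compound exposure lasted seven days.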
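Throughout, for viability, T/C: 100% = DMSO vehicle control viability.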

C=CC(=O)N1CCN(c2nc(=O)n(-c3c(C)ccnc3C(C)C)c3nc(-c4c(O)cccc4F)c(F)cc23)C(C)C1 (stereo not given) + CNC(C)C(=O)NC1CN(S(=O)(=O)c2cccc(S(=O)(=O)N3CCC4CCC(C(=O)NC(c5ccccc5)c5ccccc5)N4C(=O)C(NC(=O)C(C)NC)C3)c2)CCC2CCC(C(=O)NC(c3ccccc3)c3ccccc3)N2C1=O
> 10000 nM: IC50 (second compound 0.01 µM) | IC50 (second compound 0.0316 µM) | IC50 (second compound 0.1 µM) | IC50 (second compound 0.316 µM) | IC50 (second compound 1 µM)
inactive: viability, T/C [1] 98.5% | viability, T/C [2] 84.7% | viability, T/C [3] 91.6% | viability, T/C [4] 100% | viability, T/C (second compound 0.01 µM, first compound 3.16 µM) 92% | viability, T/C (second compound 0.01 µM, first compound 10 µM) 89% | viability, T/C [5] 94.4% | viability, T/C [6] 93.6% | viability, T/C [7] 101% | viability, T/C [8] 92.7% | viability, T/C (second compound 0.0316 µM, first compound 3.16 µM) 101% | viability, T/C (second compound 0.0316 µM, first compound 10 µM) 90.6% | viability, T/C [9] 92% | viability, T/C [10] 88.9% | viability, T/C [11] 108% | viability, T/C [12] 97.2% | viability, T/C (second compound 0.1 µM, first compound 3.16 µM) 88.8% | viability, T/C (second compound 0.1 µM, first compound 10 µM) 92.2% | viability, T/C [13] 94.5% | viability, T/C [14] 95.5% | viability, T/C [15] 97.6% | viability, T/C [16] 103% | viability, T/C (second compound 0.316 µM, first compound 3.16 µM) 95.7% | viability, T/C (second compound 0.316 µM, first compound 10 µM) 80.1% | viability, T/C [17] 106% | viability, T/C [18] 94.3% | viability, T/C [19] 101% | viability, T/C [20] 97.2% | viability, T/C (second compound 1 µM, first compound 3.16 µM) 88.9% | viability, T/C (second compound 1 µM, first compound 10 µM) 95%

COc1c(OCCCN2CCOCC2)ccc2c3n(c(=NC(=O)c4cnc(N)nc4)nc12)CCN3 + CNC(C)C(=O)NC1CN(S(=O)(=O)c2cccc(S(=O)(=O)N3CCC4CCC(C(=O)NC(c5ccccc5)c5ccccc5)N4C(=O)C(NC(=O)C(C)NC)C3)c2)CCC2CCC(C(=O)NC(c3ccccc3)c3ccccc3)N2C1=O
193 nM: IC50 (second compound 0.01 µM)
89.5 nM: IC50 (second compound 0.0316 µM)
114 nM: IC50 (second compound 0.1 µM)
72.6 nM: IC50 (second compound 0.316 µM)
111 nM: IC50 (second compound 1 µM)
inactive: viability, T/C [21] 108% | viability, T/C [22] 95.2% | viability, T/C [1] 81.7% | viability, T/C [2] 64.3% | viability, T/C [3] 38.4% | viability, T/C [4] 26.9% | viability, T/C [23] 93.7% | viability, T/C [24] 112% | viability, T/C [5] 78.2% | viability, T/C [6] 47.9% | viability, T/C [7] 38.8% | viability, T/C [8] 27.2% | viability, T/C [25] 97.4% | viability, T/C [26] 97.2% | viability, T/C [9] 68.1% | viability, T/C [10] 53.8% | viability, T/C [11] 35.4% | viability, T/C [12] 23.2% | viability, T/C [27] 92.9% | viability, T/C [28] 93.8% | viability, T/C [13] 73.4% | viability, T/C [14] 40.1% | viability, T/C [15] 30.7% | viability, T/C [16] 22% | viability, T/C [29] 86% | viability, T/C [30] 96.6% | viability, T/C [17] 75.7% | viability, T/C [18] 51.3% | viability, T/C [19] 32.5% | viability, T/C [20] 21.6%

NC(=O)C(=Cn1cnc(-c2cc(C(F)(F)F)cc(C(F)(F)F)c2)n1)c1cncnc1 + CNC(C)C(=O)NC1CN(S(=O)(=O)c2cccc(S(=O)(=O)N3CCC4CCC(C(=O)NC(c5ccccc5)c5ccccc5)N4C(=O)C(NC(=O)C(C)NC)C3)c2)CCC2CCC(C(=O)NC(c3ccccc3)c3ccccc3)N2C1=O
> 300 nM: IC50 (second compound 0.01 µM) | IC50 (second compound 0.0316 µM) | IC50 (second compound 0.1 µM) | IC50 (second compound 0.316 µM) | IC50 (second compound 1 µM)
inactive: viability, T/C (second compound 0.01 µM, first compound 0.000949 µM) 96.8% | viability, T/C (second compound 0.01 µM, first compound 0.003 µM) 107% | viability, T/C (second compound 0.01 µM, first compound 0.00949 µM) 100% | viability, T/C (second compound 0.01 µM, first compound 0.03 µM) 84.2% | viability, T/C (second compound 0.01 µM, first compound 0.0949 µM) 62.2% | viability, T/C (second compound 0.01 µM, first compound 0.3 µM) 68.5% | viability, T/C (second compound 0.0316 µM, first compound 0.000949 µM) 92.9% | viability, T/C (second compound 0.0316 µM, first compound 0.003 µM) 114% | viability, T/C (second compound 0.0316 µM, first compound 0.00949 µM) 100% | viability, T/C (second compound 0.0316 µM, first compound 0.03 µM) 77.2% | viability, T/C (second compound 0.0316 µM, first compound 0.0949 µM) 88.7% | viability, T/C (second compound 0.0316 µM, first compound 0.3 µM) 67.3% | viability, T/C (second compound 0.1 µM, first compound 0.000949 µM) 97.8% | viability, T/C (second compound 0.1 µM, first compound 0.003 µM) 98.9% | viability, T/C (second compound 0.1 µM, first compound 0.00949 µM) 91.9% | viability, T/C (second compound 0.1 µM, first compound 0.03 µM) 80.9% | viability, T/C (second compound 0.1 µM, first compound 0.0949 µM) 57.3% | viability, T/C (second compound 0.1 µM, first compound 0.3 µM) 71.7% | viability, T/C (second compound 0.316 µM, first compound 0.000949 µM) 95.3% | viability, T/C (second compound 0.316 µM, first compound 0.003 µM) 97.2% | viability, T/C (second compound 0.316 µM, first compound 0.00949 µM) 86.2% | viability, T/C (second compound 0.316 µM, first compound 0.03 µM) 77.8% | viability, T/C (second compound 0.316 µM, first compound 0.0949 µM) 62% | viability, T/C (second compound 0.316 µM, first compound 0.3 µM) 69.3% | viability, T/C (second compound 1 µM, first compound 0.000949 µM) 99.2% | viability, T/C (second compound 1 µM, first compound 0.003 µM) 97.2% | viability, T/C (second compound 1 µM, first compound 0.00949 µM) 94.4% | viability, T/C (second compound 1 µM, first compound 0.03 µM) 102% | viability, T/C (second compound 1 µM, first compound 0.0949 µM) 78.3% | viability, T/C (second compound 1 µM, first compound 0.3 µM) 56.7%

NC1CCC(NC2CC2c2ccccc2)CC1 (stereo not given) + CNC(C)C(=O)NC1CN(S(=O)(=O)c2cccc(S(=O)(=O)N3CCC4CCC(C(=O)NC(c5ccccc5)c5ccccc5)N4C(=O)C(NC(=O)C(C)NC)C3)c2)CCC2CCC(C(=O)NC(c3ccccc3)c3ccccc3)N2C1=O
inactive: viability, T/C (second compound 0.01 µM, first compound 0.000316 µM) 111% | viability, T/C (second compound 0.01 µM, first compound 0.001 µM) 104% | viability, T/C [21] 91.6% | viability, T/C [22] 105% | viability, T/C [1] 98.5% | viability, T/C [2] 89.5% | viability, T/C (second compound 0.0316 µM, first compound 0.000316 µM) 85.7% | viability, T/C (second compound 0.0316 µM, first compound 0.001 µM) 91.9% | viability, T/C [23] 88.5% | viability, T/C [24] 94.8% | viability, T/C [5] 90.7% | viability, T/C [6] 88% | viability, T/C (second compound 0.1 µM, first compound 0.000316 µM) 92% | viability, T/C (second compound 0.1 µM, first compound 0.001 µM) 103% | viability, T/C [25] 87.5% | viability, T/C [26] 88.4% | viability, T/C [9] 90.9% | viability, T/C [10] 82.2% | viability, T/C (second compound 0.316 µM, first compound 0.000316 µM) 97.1% | viability, T/C (second compound 0.316 µM, first compound 0.001 µM) 90.1% | viability, T/C [27] 102% | viability, T/C [28] 86.9% | viability, T/C [13] 88.3% | viability, T/C [14] 98.7% | viability, T/C (second compound 1 µM, first compound 0.000316 µM) 100% | viability, T/C (second compound 1 µM, first compound 0.001 µM) 88.1% | viability, T/C [29] 92.9% | viability, T/C [30] 86.6% | viability, T/C [17] 78.9% | viability, T/C [18] 91.2%
> 100 nM: IC50 (second compound 0.01 µM) | IC50 (second compound 0.0316 µM) | IC50 (second compound 0.1 µM) | IC50 (second compound 0.316 µM) | IC50 (second compound 1 µM)
